Series [1] relates to ovariectomized (OVX) rats. To be noted: rat, in vivo, po, 1.5 mg/kg.
For series [2], the system named is osteoclast precursors (bone marrow hematopoietic cells). It is filed as cell-based, SD rats. To be noted: read-out: IC50 Osteoclastogenesis.
The test system of series [3] is ovariectomized (OVX) mice. Details: species or system ICR mice. To be noted: mouse, in vivo, po, 1.5 mg/kg.
The target in series [4] is T1, integrin α5β1 (Homo sapiens, UniProt P05556+P08648).
T1 construct: Human erythroleukemia K562 cells were purchased from ATCC; host or cells: K562
It is filed as cell-based.

In series [5] the target is T2, integrin αIIbβ3 (Homo sapiens, UniProt P05106+P08514).
T2 construct: host or cells: CHO (CHO-αIIbβ3)
It is filed as cell-based.

The target in series [6] is platelet aggregation (Homo sapiens, UniProt P05106+P08514). It is filed as cell-based.
For series [7] the following is noted: mouse, in vivo.
Series [8] concerns the target integrin αvβ3 (UniProt P05106+P06756). Format: cell-based.

Where two headings read alike, the source gives them in different places.

Chain of integrin αvβ3 (P06756 31-1048): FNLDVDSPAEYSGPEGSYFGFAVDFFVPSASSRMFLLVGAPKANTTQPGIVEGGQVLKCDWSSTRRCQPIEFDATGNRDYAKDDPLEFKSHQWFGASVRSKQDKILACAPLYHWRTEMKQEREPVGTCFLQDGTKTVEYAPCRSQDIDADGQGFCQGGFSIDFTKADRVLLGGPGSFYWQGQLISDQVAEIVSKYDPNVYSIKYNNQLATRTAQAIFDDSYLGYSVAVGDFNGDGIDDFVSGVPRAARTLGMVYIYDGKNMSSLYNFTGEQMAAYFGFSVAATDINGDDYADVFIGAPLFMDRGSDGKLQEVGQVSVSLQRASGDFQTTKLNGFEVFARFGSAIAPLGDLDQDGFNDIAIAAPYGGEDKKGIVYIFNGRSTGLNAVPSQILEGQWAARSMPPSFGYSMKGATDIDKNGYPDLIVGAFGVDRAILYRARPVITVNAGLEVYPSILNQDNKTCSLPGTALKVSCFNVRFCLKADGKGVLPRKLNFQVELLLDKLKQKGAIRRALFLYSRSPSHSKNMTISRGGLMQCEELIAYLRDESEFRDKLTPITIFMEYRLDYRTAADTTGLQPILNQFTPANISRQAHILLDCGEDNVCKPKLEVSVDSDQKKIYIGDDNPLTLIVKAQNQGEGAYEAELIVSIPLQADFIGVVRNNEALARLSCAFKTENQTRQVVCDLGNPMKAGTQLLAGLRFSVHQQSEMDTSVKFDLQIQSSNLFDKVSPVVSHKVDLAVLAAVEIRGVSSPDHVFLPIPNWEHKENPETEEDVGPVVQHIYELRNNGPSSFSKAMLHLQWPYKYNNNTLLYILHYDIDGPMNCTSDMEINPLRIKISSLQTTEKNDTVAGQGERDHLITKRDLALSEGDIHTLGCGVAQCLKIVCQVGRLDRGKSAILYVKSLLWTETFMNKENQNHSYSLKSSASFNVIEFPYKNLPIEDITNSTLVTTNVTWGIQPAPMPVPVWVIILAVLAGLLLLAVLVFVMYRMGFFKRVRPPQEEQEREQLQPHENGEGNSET
Chain of integrin αvβ3 (P05106 27-788): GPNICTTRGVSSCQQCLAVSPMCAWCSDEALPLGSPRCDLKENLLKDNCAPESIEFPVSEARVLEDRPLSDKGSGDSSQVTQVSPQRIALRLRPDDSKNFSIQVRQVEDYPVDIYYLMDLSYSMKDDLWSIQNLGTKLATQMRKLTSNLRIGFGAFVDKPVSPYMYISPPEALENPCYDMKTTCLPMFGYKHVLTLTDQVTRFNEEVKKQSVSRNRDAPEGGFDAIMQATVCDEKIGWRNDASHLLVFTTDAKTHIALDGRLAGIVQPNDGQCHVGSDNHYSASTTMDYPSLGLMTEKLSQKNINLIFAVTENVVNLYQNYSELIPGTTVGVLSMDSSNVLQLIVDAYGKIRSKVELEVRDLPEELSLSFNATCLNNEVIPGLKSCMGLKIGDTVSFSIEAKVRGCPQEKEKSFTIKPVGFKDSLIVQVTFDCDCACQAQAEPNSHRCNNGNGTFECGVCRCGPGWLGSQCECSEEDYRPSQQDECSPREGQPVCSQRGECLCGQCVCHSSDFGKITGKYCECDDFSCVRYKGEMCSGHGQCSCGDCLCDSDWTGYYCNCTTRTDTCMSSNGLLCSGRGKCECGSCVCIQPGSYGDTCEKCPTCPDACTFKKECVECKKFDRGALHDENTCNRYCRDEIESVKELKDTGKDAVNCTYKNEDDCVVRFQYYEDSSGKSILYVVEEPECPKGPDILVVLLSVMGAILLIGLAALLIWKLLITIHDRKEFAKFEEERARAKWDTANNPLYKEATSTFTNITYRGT
T1 sequence (P08648 42-894 limits assumed): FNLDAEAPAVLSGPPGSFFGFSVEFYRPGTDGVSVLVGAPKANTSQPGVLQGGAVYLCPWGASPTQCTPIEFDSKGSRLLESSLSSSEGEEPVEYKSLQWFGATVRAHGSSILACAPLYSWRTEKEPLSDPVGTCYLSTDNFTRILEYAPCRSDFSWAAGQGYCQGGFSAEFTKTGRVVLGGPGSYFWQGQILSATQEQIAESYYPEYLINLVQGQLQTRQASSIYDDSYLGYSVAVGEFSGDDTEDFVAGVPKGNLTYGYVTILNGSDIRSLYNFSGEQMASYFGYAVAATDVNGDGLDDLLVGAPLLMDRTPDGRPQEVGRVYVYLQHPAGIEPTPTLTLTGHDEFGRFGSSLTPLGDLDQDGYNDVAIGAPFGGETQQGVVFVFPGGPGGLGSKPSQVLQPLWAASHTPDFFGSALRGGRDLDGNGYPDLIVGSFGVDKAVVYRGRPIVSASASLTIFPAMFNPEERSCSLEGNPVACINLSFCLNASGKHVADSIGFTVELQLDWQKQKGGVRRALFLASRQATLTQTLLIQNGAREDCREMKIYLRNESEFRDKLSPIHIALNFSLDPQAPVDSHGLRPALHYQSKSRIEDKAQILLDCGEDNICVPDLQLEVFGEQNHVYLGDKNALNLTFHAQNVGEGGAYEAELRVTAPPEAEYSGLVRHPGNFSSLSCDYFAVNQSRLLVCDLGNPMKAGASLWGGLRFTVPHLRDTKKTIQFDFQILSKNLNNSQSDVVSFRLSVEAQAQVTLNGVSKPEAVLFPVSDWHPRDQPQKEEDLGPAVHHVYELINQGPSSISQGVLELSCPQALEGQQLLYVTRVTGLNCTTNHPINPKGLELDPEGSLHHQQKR
T1 sequence (P08648 895-1049 partner limits assumed): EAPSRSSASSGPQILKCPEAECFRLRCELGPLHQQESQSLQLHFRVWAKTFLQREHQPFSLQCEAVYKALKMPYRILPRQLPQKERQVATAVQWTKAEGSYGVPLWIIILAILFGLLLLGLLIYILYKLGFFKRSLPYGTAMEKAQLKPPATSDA
T1 sequence (P05556 21-798): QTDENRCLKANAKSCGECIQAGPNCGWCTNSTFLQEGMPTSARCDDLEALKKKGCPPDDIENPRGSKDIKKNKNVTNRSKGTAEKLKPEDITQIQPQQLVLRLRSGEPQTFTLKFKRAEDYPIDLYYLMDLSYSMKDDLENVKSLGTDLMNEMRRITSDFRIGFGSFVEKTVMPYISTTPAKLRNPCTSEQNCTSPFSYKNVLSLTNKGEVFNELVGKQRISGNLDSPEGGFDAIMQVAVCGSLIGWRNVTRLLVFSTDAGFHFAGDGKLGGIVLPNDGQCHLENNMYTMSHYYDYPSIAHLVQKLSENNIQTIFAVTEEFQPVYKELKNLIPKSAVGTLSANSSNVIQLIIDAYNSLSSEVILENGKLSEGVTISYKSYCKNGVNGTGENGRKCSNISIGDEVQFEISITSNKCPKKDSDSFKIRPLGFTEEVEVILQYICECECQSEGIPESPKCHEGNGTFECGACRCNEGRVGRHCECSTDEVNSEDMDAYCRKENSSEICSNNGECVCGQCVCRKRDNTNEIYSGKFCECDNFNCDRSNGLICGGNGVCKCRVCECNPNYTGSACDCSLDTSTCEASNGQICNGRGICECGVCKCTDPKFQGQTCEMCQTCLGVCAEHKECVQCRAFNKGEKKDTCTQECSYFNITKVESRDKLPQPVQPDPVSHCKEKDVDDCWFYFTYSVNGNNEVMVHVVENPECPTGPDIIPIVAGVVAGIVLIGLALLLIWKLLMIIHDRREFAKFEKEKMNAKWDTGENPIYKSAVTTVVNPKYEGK

In the case of `NCCCC(O)(P(=O)(O)O)P(=O)(O)O` [Alendronate, alendronate, reference compound], the “ovariectomy-induced increase in osteoclast activity (serum C-terminal telopeptide of type-I collagen)” value in series [1] is reported as “reversed the ovariectomy-induced increase in osteoclast activity”.

As for “ARGDDL: rhodostomin variant with RGD motif ^48Ala-Arg-Gly-Asp-Asp-Leu^53, SEQ ID NO: 32”, the IC50 in series [2] was found to be 0.00802 µM. In series [3], the BMC was 0.624 ± 0.007 g, the BMD was 0.093 ± 0.001 g/cm^2 and the “C-terminal telopeptide of COL(1)α1 chain” value was 389 ± 16.4 ng/mL.

Regarding “PGP: rhodostomin variant having a RGD motif variant ^48PRGDGP^53, SEQ ID NO: 42”, the IC50 in series [4] (read-out: IC50 α5β1) came out at 4 µM; in series [4] (read-out: IC50 α5β1/Fn), 3.46 µM; in series [5] (read-out: IC50 αIIbβ3), 0.5 µM; in series [5] (read-out: IC50 αllbβ3/Fg) it was 2.59 µM; in series [6], 0.283 µM.

Turning to “PRGDDL: rhodostomin variant with RGD motif ^48Pro-Arg-Gly-Asp-Asp-Leu^53, SEQ ID NO: 33”, the IC50 in series [2] was found to be 0.00315 µM.

As to “PRLDDL: rhodostomin variant with RGD motif ^48Pro-Arg-Leu-Asp-Asp-Leu^53, SEQ ID NO: 37”, in series [3], the BMC is on record as 0.563 ± 0.056 g, the BMD was 0.091 ± 0.002 g/cm^2 and the “C-terminal telopeptide of COL(1)α1 chain” value came to 410 ± 25.1 ng/mL.

As for “RID: rhodostomin variant with RGD motif ^48Pro-Arg-Ile-Asp-Met-Pro^53, SEQ ID NO: 39”, the IC50 in series [2] was found to be 0.00582 µM. For the same compound, in series [3], the BMC is 0.622 ± 0.004 g, the BMD stood at 0.091 ± 0.001 g/cm^2 and the “C-terminal telopeptide of COL(1)α1 chain” value came to 391 ± 12 ng/mL.

Take rhodostomin [reference compound]: the IC50 worked out at 0.00552 µM in series [2]; 0.013 µM in series [8] (read-out: IC50 αvβ3); 0.013 µM in series [8] (read-out: IC50 αvβ3/Fg); 0.021 µM in series [5] (read-out: IC50 αIIbβ3); 0.021 µM in series [5] (read-out: IC50 αllbβ3/Fg); 0.083 µM in series [6]. In addition, in series [7], the “effect on tail bleeding (clotting) time” value is given as “pronounced effect in prolonging the clotting time”. In series [3], the BMC amounted to 0.619 ± 0.006 g. In series [3], this compound showed a BMD of 0.090 ± 0.001 g/cm^2. For the same compound, in series [3], the “C-terminal telopeptide of COL(1)α1 chain” value was 397 ± 13.6 ng/mL.

For the origin of these results see US8183201B2 (priority 2006, dated 2012).
